Laboratory results published in the METLIN SMRT retention time set (Domingo-Almenara et al. 2019).

Assay: gradient 5% acetonitrile 3 min, to 50% in 2 min, to 85% in 15 min, held 3 min, 100 µL/min
Conditions: column: Zorbax Extend-C18 2.1 x 50 mm; eluents: water / acetonitrile, 0.1% formic acid
Outline: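 Using water and acetonitrile that each contained 0.1% formic acid, mixtures of ~100 pure standards were separated at 100 μL/min on a Zorbax Extend-C18 column (2.1 × 50 mm, 1.8 μm). The HPLC fed a quadrupole time-of-flight mass spectrometer working in positive and negative ionization mode, with dead and dwell volumes of 40 μL and 900 μL. Data were acquired over 3 months. Retention time was read from computationally picked adduct peaks after manual inspection of each.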

| RP-LC retention time [s] | Structure (SMILES) |
| --- | --- |
| 597 | COC(=O)CC(=O)Nc1cc2c(cc1N1CCOCC1)n(C)c(=O)n2C |
| 928 | Cn1nc(-c2nnc(-c3ccccc3F)o2)c2c1CCN(S(=O)(=O)c1ccccc1Cl)C2 |
| 781 | Cc1nc2cc(N3CC(C(=O)Nc4ccc(Cl)cc4C)CC3=O)ccc2o1 (configuration not stated) |
| 705 | CCC(CC)NCCOC(=O)c1ccc([N+](=O)[O-])cc1 |
| 750 | O=C(Nc1c(-c2ccccc2)nc2ccc(Cl)cn12)c1ccc(F)cc1 |
| 918 | CCN1C(=O)c2cccnc2Sc2cc(NC(=O)c3ccc(C)c(C)c3)ccc21 |
| 581 | O=C(Nc1ccc(C(F)(F)F)cc1)c1cn(CC(O)c2ccccc2)nn1 (configuration not stated) |
| 1230 | Cc1ccc(-c2noc(-c3ccc(=O)n(Cc4ccc(Cl)cc4)c3)n2)cc1 |
| 842 | CN1CCCc2cc(CCNC(=O)C(=O)NCCC3=CCCCC3)ccc21 |
| 1140 | COc1ccc2c(c1)-c1nc(NC(=O)c3ccc(F)cc3)sc1CC2 |
| 583 | Cc1cc2nc(C)c(=O)n(CC(=O)NCCN(C)C)c2cc1C |
| 674 | CCNc1cc(N2CCCC(CCC(=O)Nc3ccc4c(c3)OCCO4)C2)ncn1 (configuration not stated) |
| 730 | O=C(Cc1nnc(-c2ccc3ncccc3c2)o1)Nc1ccc(F)cc1Cl |
| 974 | Cc1cc(C)cc(OCc2nc(CCN(C)C(=O)c3cccs3)no2)c1 |
| 678 | COc1ccc(NC(=O)c2[nH]c3cc(C)sc3c2CN(C)C)c(OC)c1 |
| 597 | CCNC(=O)N1CC(c2nc(-c3cccnc3)no2)C2(CCOCC2)C1 (configuration not stated) |
| 806 | O=C(NC1CCN(c2cc(-c3ccc(F)cc3)[nH]n2)C1)c1cccc(Br)c1 (configuration not stated) |
| 878 | O=C1CC[C@]2(C(=O)N3CCCCC3)CCCC[C@H]2N1CCc1ccccc1 |
| 643 | Cc1c(C2CCN(C(=O)c3n[nH]c4ccccc34)CC2)noc1N |
| 1020 | COc1cccc(-c2nc(-c3cccc(-c4ccnn4C)c3)no2)c1OC |
| 589 | CC(=O)N(Cc1nn(C)c2c1CN(Cc1cn[nH]c1-c1cccs1)CC2)c1ccccc1 |
| 732 | COc1ccc(-c2nc(-c3ccc4ncn(C)c4c3)no2)cc1 |
| 945 | CCOc1ccccc1CNC(=O)c1nnc(-c2ccc(S(=O)(=O)N(C)C)cc2)o1 |

| RP-LC retention time [s] | Structure (SMILES) |
| --- | --- |
| 1090 | O=c1c2cc(-c3ccc(F)cc3)nn2ccn1Cc1ccc(Cl)cc1 |
| 774 | COc1ccc(Br)c(C(=O)Nc2nnc(Cc3ccc(F)cc3)o2)c1 |
| 744 | CC(=O)Nc1ccc(-n2cnc(C(=O)NC(C)CCc3ccccc3)c2)nc1 (configuration not stated) |
| 1100 | COc1ccc(C)cc1NC(=O)C1CCN(S(C)(=O)=O)c2cc(Cl)ccc2O1 (configuration not stated) |
| 697 | COc1nccnc1N1CCC(N(C)C(=O)NCc2cccc(F)c2)C1 (configuration not stated) |
| 683 | CCC(CO)NCc1ccc(-c2cccc(Cl)c2C)o1 (configuration not stated) |
| 805 | Cc1ccc(-c2noc(-c3ccc(N4CCN(c5ccccn5)CC4)nc3)n2)cc1 |
| 874 | CC(C)[C@@H](C(=O)NCCc1c[nH]c2ccc(F)cc12)n1nnc2ccccc2c1=O |
| 945 | Cc1cccc(N2CCN(c3ncc(C(=O)O)c(C)n3)CC2)c1 |
| 1230 | Fc1ccc(-c2nc(-c3ccc(-n4cccn4)nc3)no2)cc1 |
| 806 | CC(C)(C)c1ccc(C(=O)NCc2cnn3ccccc23)cc1 |
| 736 | Cc1c(Cl)cccc1NC(=O)N1CCC(c2cc(N)on2)CC1 |
| 668 | Cc1cccc(N2CCN(C(=O)c3cn4ccc(C)cc4n3)CC2)c1 |
| 695 | COc1cccc(S(=O)(=O)NCc2cccnc2-c2ccc(C)cc2)c1 |
| 1030 | CCOc1ccc(-c2nc(CSCC(=O)NCc3cccs3)c(C)o2)cc1 |
| 788 | COC(=O)N1CCc2ccc(F)cc2C1C(=O)Nc1ncc(C)s1 (configuration not stated) |
| 608 | COCC1(F)CCN(Cc2c(-c3ccc(C)cc3)nc3c(C)cccn23)CC1 |
| 1000 | Cc1c(S(=O)(=O)NCc2ccccc2Cl)c(C)n(C)c1-c1nnc(C2CCC2)o1 |
| 576 | O=C(NCc1cccnc1)C1CCCN(c2ncnc3c2oc2ccccc23)C1 (configuration not stated) |
| 914 | COc1ccc(-c2noc(Cc3nnc(-c4cccc(F)c4)o3)n2)cc1OC |
| 765 | O=C(NC1CCCCC1)C1CCN(S(=O)(=O)c2ccc3[nH]c(=O)sc3c2)CC1 |
| 942 | COc1ccccc1NC(=O)Cn1cccc1-c1nnc(C2CCC2)o1 |
| 1020 | Cc1ccc(CNC(=O)CN2C(=O)C(Oc3ccc(F)cc3)C23CCCCC3)o1 (configuration not stated) |

| RP-LC retention time [s] | Structure (SMILES) |
| --- | --- |
| 708 | CCNC(=O)c1ccc(-n2cccc2)nc1 |
| 816 | CC(C)=CCC/C(C)=C\C(N)=O |
| 1200 | COc1cccc(NC(=O)c2c(O)c3cccnc3n(-c3ccc(F)cc3)c2=O)c1 |
| 609 | Cc1cnc(CC2CCN(C(=O)N(C)C)C2)n1Cc1ccccc1 (configuration not stated) |
| 1050 | Cc1ccc(-c2ncc(C(=O)Nc3cccc(Br)c3)c(-c3ccncc3)n2)cc1 |
| 603 | CC(=O)N1CCC(C2CCN(Cc3ccc(Br)s3)C2)CC1 (configuration not stated) |
| 668 | COc1cccc(-c2nc3ccccc3n2CC(=O)N2CCC(C)CC2)c1 |
| 840 | COC(=O)c1c(NCc2ccc(C(F)(F)F)cc2)c2cc(F)ccc2[nH]c1=O |
| 922 | C=CCN1C(=O)COc2ccc(-c3nc(NC(=O)C(C)C)sc3C)cc21 |
| 886 | NS(=O)(=O)c1ccc(CCNS(=O)(=O)c2ccccc2-c2nc(-c3ccccc3)no2)cc1 |
| 731 | CC(CNC(=O)c1cc2c(s1)CN(C1CC1)C2)c1ccccc1 (configuration not stated) |
| 660 | CCCCNC(=O)C1CC(=O)N(c2n[nH]c3cccc(F)c23)C1 (configuration not stated) |
| 854 | C[C@H]1CN(C(=O)Nc2ccccc2Cl)C[C@@H]1c1nc(-c2ccncc2)no1 |
| 1060 | CCn1nccc1C(=O)NC1CCN(c2nc3c(s2)c(C)nn3-c2ccc(F)cc2)CC1 |
| 866 | OC(COc1ccc(Cl)cc1)CN1CCN(c2cccc(Cl)c2)CC1 (configuration not stated) |
| 910 | CSc1cccc(NC(=O)Cn2c(=O)n(-c3ccc(C)cc3)c(=O)c3c2cc(C)n3C)c1 |
| 670 | C=CCN1CCc2c(cc(O)c(O)c2Br)[C@@H](c2ccccc2)C1 |
| 679 | Cc1ccn2cc(-c3ccc(NS(=O)(=O)c4cccc(Cl)c4)cc3)nc2n1 |
| 1010 | COc1ccc(-n2c(=O)n(C)c(=O)c3cc(C(=O)Nc4cccc(Cl)c4)cnc32)cc1 |
| 637 | Cc1nc(Nc2ccc(Cl)cn2)sc1C(=O)NCCN1CCCCC1 |
| 776 | CC(CNC(=O)C1CCN(C(=O)C2Sc3ccccc3NC2=O)CC1)c1ccccc1 (configuration not stated) |
